Legend:
IMR32 cell line = assay: Expression of NF and GFAP markers; type: cell-based, human; conditions: β-Car^OX 0 μM
From the text: Expression of glial fibrillary acidic protein, GFAP, is a useful marker indicating differentiation towards glial cells.

NB4 cells = assay: Cell cycling, flow cytometry of intracellular DNA content; type: cell-based, human; conditions: synchronized populations, controls 22 hours
Method: There is no G1 block. This effect is due to a lengthening of the duration of the cell cycle. […] The data were acquired using flow cytometry analysis of the individual intracellular DNA content of cells from synchronized populations. Sampling was done every 5 hours over a period of 48 hours.

NB4 cell line = assay: Expression of differentiation markers CD33, CD11b, CD15 at five days; type: cell-based, human; conditions: combined treatments 1 μM RA and 7.5 μM β-Car^OX or fraction
Method: The cell differentiation-inducing effects of the fractions were determined qualitatively by observation of morphological changes in cell lines and quantitatively by measuring the expression of characteristic protein markers using monoclonal antibodies and flow cytometry. […] Many differentiation markers are expressed transiently during the differentiation program. In the NB4 cell line, protein CD33 is associated with early stages of differentiation, followed by protein CD11b, an intermediate marker, and eventually by protein CD15, an advanced differentiation marker. Enhanced differentiation therefore will be characterized by a decrease in the expression and intensity of the CD33 marker and an increase in expression and intensity of the CD15 marker.

NB4 [1] = assay: Differentiating properties of combinations of β-Car^OX and retinoic acid; type: cell-based, human; conditions: Retinoic Acid L 0.1–1 μM alone
From the text: (§1) Given the cell differentiation-inducing properties of β-Car^OX and some of its fractions, it is instructive not only to compare the effects obtained with those of the better known all-trans retinoic acid, which is recognized as being able to regulate differentiation capacities of several mammalian cell types, but to determine also the effect upon cells when β-Car^OX and retinoic acid are used together. Table 4 presents qualitative data illustrating the results obtained with various combinations of β-Car^OX and retinoic acid in both the NB4 and IMR32 cell lines.
(§2) When an equipotent concentration of β-Car^OX is combined with retinoic acid, their differentiation-inducing effects cancel out. However, when the concentration of either one of them is increased relative to the other, differentiation-induction is restored.

IMR32 [2] = assay: as above; type: cell-based, human; conditions: Retinoic Acid L 1–2.5 μM alone
From the text: as §1, §2

NB4 [3] = assay: Cytostatic effect (Hoechst 33258 DNA fluorescence, 3 days); type: cell-based, human; set-up: key: +: activity higher; 0: similar to; −: less than the activity of β-Car^OX; conditions: ranked relative to β-Car^OX across six concentrations 2.5-22.5 μM
Method: (§3) Fractions were tested for cytostatic properties and ability to induce differentiation. The results were compared with those obtained for β-Car^OX, which served as a reference indicating whether or not fractionation was leading to fractions with enhanced activity. Retinoic acid and/or β-carotene were used as controls in some of the cell lines tested in order to differentiate their effects from that of β-Car^OX. All of the samples were tested in identical ‘by weight’ concentrations. Comparisons have been done on a pseudo molarity scale by dividing the weight of sample used by the molecular weight of β-carotene (537 Da). Fractions were tested in human colon carcinoma (HCT116), human neuroblastoma (IMR32), human acute promyelocytic leukemia (NB4), human chronic myelogenous leukemia (K562), and mouse keratinocytes (Balb/c/MK).
(§4) Fractions have been ranked relative to β-Car^OX by dividing each growth inhibition value at each sample concentration by the corresponding β-Car^OX value and determining qualitatively by inspection the trends across the six sample concentrations. Activities of fractions are expressed as “+”, “0”, and “−”, indicating activity higher, similar to, and less than the activity of β-Car^OX, respectively.

HCT116 = assay: as above; type: cell-based, human; set-up: key: +: activity higher; 0: similar to; −: less than the activity of β-Car^OX; conditions: ranked relative to β-Car^OX across six concentrations 2.5-45 μM
Method: as §3, §4

K562 = assay: as above; type: cell-based, human; set-up: key: +: activity higher; 0: similar to; −: less than the activity of β-Car^OX; conditions: ranked relative to β-Car^OX across six concentrations 2.5-22.5 μM
Method: as §3, §4

IMR32 [4] = assay: as above; type: cell-based, human; set-up: key: +: activity higher; 0: similar to; −: less than the activity of β-Car^OX; conditions: ranked relative to β-Car^OX across six concentrations 2.5-45 μM
Method: as §3, §4

Balb/c/MK keratinocytes = assay: Expression of cytokeratins in keratinocytes; type: cell-based, mouse; conditions: Ca^++ 1.8 mM, Retinoic Acid 3 μM, β-Car^OX 30 μM; for IA, intensity of expression per cell, Cytokeratins 1 and 10: control 4.4; for IA, intensity of expression per cell, panel (CAMON) of Cytokeratins: control 60.7; for A, percentage of immunopositive cells expressing Cytokeratins 1 and 10: control 90.3; for A, percentage of immunopositive cells expressing a panel (CAMON) of Cytokeratins: control 93.7
From the text: Qualitative data were provided in the first phase of research for the differentiation-inducing effect of β-Car^OX upon the mouse Balb/c/MK keratinocyte cell line.
Cytokeratins 1 and 10 are high molecular weight proteins which are increasingly expressed with the progression of the differentiation program. […] Cells cultured in low calcium media remain proliferative. […] The apparently smaller effect of β-Car^OX compared to retinoic acid is due not to lower potency but to a delayed action and similar results are obtained using a panel of other cytokeratins (Cytokeratin coctail from CAMON containing cytokeratins 1–8, 10, 13, 14, 15, 16, 19).

DA-3 cell line = assay: Viability (MTT test), melphalan with β-Car^OX; type: cell-based; conditions: Mus musculus
From the text: The benefit of the cellular GSH-lowering effect is illustrated by what happens to the viability of DA-3 cells, using the MTT test, treated with both β-Car^OX and melphalan, a classical anticancer agent.

CC1=C(/C=C/C(C)=C/C=C/C(C)=C/C(=O)O)C(C)(C)CCC1 [All trans Retinoic Acid]
GFAP % (IMR32 cell line; RA 1.0 μM): 94.4%
GFAP intensity (IMR32 cell line; RA 1.0 μM): 18.4
NF % (IMR32 cell line; RA 1.0 μM): 96.4%
NF intensity (IMR32 cell line; RA 1.0 μM): 14.2
GFAP % (IMR32 cell line; RA 2.5 μM): 90.5%
GFAP intensity (IMR32 cell line; RA 2.5 μM): 6.1
NF % (IMR32 cell line; RA 2.5 μM): 97.2%
NF intensity (IMR32 cell line; RA 2.5 μM): 11.9
GFAP % (IMR32 cell line; RA 5.0 μM): 87.5%
GFAP intensity (IMR32 cell line; RA 5.0 μM): 5.2
NF % (IMR32 cell line; RA 5.0 μM): 95.5%
NF intensity (IMR32 cell line; RA 5.0 μM): 8.4
GFAP % (IMR32 cell line; RA 10.0 μM): 83.1%
GFAP intensity (IMR32 cell line; RA 10.0 μM): 4.0
NF % (IMR32 cell line; RA 10.0 μM): 92.0%
NF intensity (IMR32 cell line; RA 10.0 μM): 7.9
duration of the cell cycle (NB4 cells): 18 h
CD11b A, percentage of immunopositive cells (NB4 cell line): 71.9
CD11b IA, average intensity of marker expression per cell (NB4 cell line): 2.6 arbitrary units
CD15 A, percentage of immunopositive cells (NB4 cell line): 73.1
CD15 IA, average intensity of marker expression per cell (NB4 cell line): 73.1 arbitrary units
CD33 A, percentage of immunopositive cells (NB4 cell line): 87.1
CD33 IA, average intensity of marker expression per cell (NB4 cell line): 1.6 arbitrary units
Differentiation (NB4 [1]): yes
Differentiation (IMR32 [2]): yes
Cytostatic Effect On Cell Lines, NB4 (NB4 [3]): 0
Cytostatic Effect On Cell Lines, HCT116 (HCT116): −
Cytostatic Effect On Cell Lines, K562 (K562): 0
Cytostatic Effect On Cell Lines, IMR32 (IMR32 [4]): +
IA, intensity of expression per cell, Cytokeratins 1 and 10 (Balb/c/MK keratinocytes): 15.4 arbitrary units
IA, intensity of expression per cell, panel (CAMON) of Cytokeratins (Balb/c/MK keratinocytes): 129.8 arbitrary units
A, percentage of immunopositive cells expressing Cytokeratins 1 and 10 (Balb/c/MK keratinocytes): 94.5
A, percentage of immunopositive cells expressing a panel (CAMON) of Cytokeratins (Balb/c/MK keratinocytes): 94.3

[Ca+2] [Ca^++]
IA, intensity of expression per cell, Cytokeratins 1 and 10 (Balb/c/MK keratinocytes): 13.8 arbitrary units
IA, intensity of expression per cell, panel (CAMON) of Cytokeratins (Balb/c/MK keratinocytes): 87.2 arbitrary units
A, percentage of immunopositive cells expressing Cytokeratins 1 and 10 (Balb/c/MK keratinocytes): 96.5
A, percentage of immunopositive cells expressing a panel (CAMON) of Cytokeratins (Balb/c/MK keratinocytes): 97.6

CC1=C(/C=C/C(C)=C/C=C/C(C)=C/C=C/C=C(C)/C=C/C=C(C)/C=C/C2=C(C)CCCC2(C)C)C(C)(C)CCC1 [β-Carotene]
Cytostatic Effect On Cell Lines, NB4 (NB4 [3]): −
Cytostatic Effect On Cell Lines, HCT116 (HCT116): −
Cytostatic Effect On Cell Lines, K562 (K562): −
Cytostatic Effect On Cell Lines, IMR32 (IMR32 [4]): 0

N[C@@H](Cc1ccc(N(CCCl)CCCl)cc1)C(=O)O [Melphalan]
IC50 (DA-3 cell line; DA-3, in presence of β-Car^OX 5 μM): 40 µM
IC50 (DA-3 cell line; DA-3, in presence of β-Car^OX 7.5 μM): 44 µM
IC50 (DA-3 cell line; DA-3, in presence of β-Car^OX 10 μM): 6.6 µM
IC50 (DA-3 cell line; DA-3, in presence of β-Car^OX 20 μM): 6.8 µM
IC50 (DA-3 cell line; DA-3, β-Car^OX 0 μM): 100 µM

Reference: US7132458B2, “Oxidized carotenoid fractions and ketoaldehyde useful as cell-differentiation inducers, cytostatic agents, and anti-tumor agents” (Chemaphor Inc., priority 1994, dated 2006)
